Source: patent publication US7968526B2, “Antisense oligonucleotides directed to ribonucleotide reductase R2 and uses thereof in the treatment of cancer” (Lorus Therapeutics Inc., priority 2003, dated 2011)

Test system: Hela S3 human cervix epitheloid carcinoma cells
Assay: Hela S3 hydroxyurea resistant cervix carcinoma xenograft in SCID mice
Format: in vivo, human cells in mice
Experimental: BxPC-3 is a gemcitabine resistant call line. […] Gemcitabine was administered intravenously every three days at a dose of 100 mg/kg. Antitumour activities were estimated by the inhibition of tumour volume, which was measured with caliper. Each point represents mean tumour volume calculated from 10 animals per experimental group. […] Hela S3 is a hydroxyurea resistant cell line. […] Hydroxyurea was administered intraperitoneally every day at a dose of 250 mg/kg for 10 days. Cisplatin was administered intravenously once a week for three weeks at a dose of 4 mg/kg. Antitumour activities were estimated by the inhibition of tumour volume, which was measured with caliper. Each point represents mean tumour volume calculated from 10 animals per experimental group. […] Cisplatin was administered intravenously once a week for three weeks at a dose of 4 mg/kg. Taxol was administered intravenously once a week for three weeks at a dose of 10 mg/kg. Antitumour activities were estimated by the inhibition of tumour volume, which was measured with caliper. Each point represents mean tumour volume calculated from 10 animals per experimental group. […] Taxol was administered i.p. once a week at a dose of 10 mg/kg. Antitumour activities were estimated by the inhibition of tumour volume (FIG. 12A), which was measured with calipers. Each point represents mean tumour volume calculated from 10 animals per experimental group. Animals were sacrificed and tumour weights taken at the end of the study (FIG. 12C). […] The effects of combined treatment were greater than either treatment alone. […] Cisplatin was administered intravenously once a week for four weeks at a dose of 4 mg/kg. Taxol was administered intravenously once a week for four weeks at a dose of 20 mg/kg. Antitumour activities were estimated by the inhibition of tumour volume, which was measured with caliper. Each point represents mean tumour volume calculated from 9-10 animals per experimental group. […] Cisplatin was administered intravenously once a week for four weeks at a dose of 4 mg/kg. Antitumour activities were estimated by the inhibition of tumour volume, which was measured with caliper. Each point represents mean tumour volume calculated from 10 animals per experimental group. At the end of the study the animals were sacrificed and tumours weighed. […] Taxol was administered i.p. once a week at a dose of 10 mg/kg. Anti-tumour activity was estimated by the inhibition of tumour volume, which was measured with caliper. Each point represents mean tumour volume calculated from 10 animals per experimental group. In addition animals were sacrificed and tumour weights taken at the end of the study. […] CPT-11 was administered i.p. for 5 days at a dose of 20 mg/kg/day. Antitumour activities were estimated by the inhibition of tumour volume, which was measured with caliper. Each point represents mean tumour volume calculated from 10 animals per experimental group. Tumour weights were measured after animals were sacrificed at the end of the treatment. These cells are not resistant to CPT-11 which was used as a positive control.

NC(=O)NO [Hydroxyurea (HU), Hydroxyurea, reference compound]
Tumour weight as % of saline control (Hela S3 (cervix), hydroxyurea resistant, SCID, SEQ ID NO:1 10 mg/kg i.v. every other day 6 times, Hydroxyurea 250 mg/kg i.p. daily 10 days, Cisplatin 4 mg/kg i.v. weekly x3): 92% | Antitumour effect (tumour volume, FIG. 10) (Hela S3 hydroxyurea resistant, SCID mice, SEQ ID NO:1 10 mg/kg i.v. every other day, Hydroxyurea 250 mg/kg i.p. daily, Cisplatin 4 mg/kg i.v. weekly): ineffective against Hydroxyurea-resistant tumour
